Measurements reported in article PMC3170320, “Minimal Antizyme Peptide Fully Functioning in the Binding and Inhibition of Ornithine Decarboxylase and Antizyme Inhibitor” (PLoS ONE, 2011).
Entries after “also recorded” stand apart in the source; their conditions may differ.

Experiments:
human ODC [1] = test: ODC enzyme activity inhibition by AZ peptides (without AZI); format: biochemical; details: for IC50: ODC fixed at 20 µg/mL (0.19 µM), CO2-L3K coupled assay, 405 nm, 37°C, 30 mM Tris-HCl pH 7.8, 10 mM ornithine, 0.2 mM PLP, fit of inhibition curves; for IC50 (AZ peptide)/IC50 (AZ_WT): ratio to AZ_WT; for ODC inhibition ability (in words): relative ODC activity, Figure 2
Method: Figure 2 Relative ODC enzyme activity in the presence of AZ peptides. The activity of ODC was inhibited by various concentrations of AZ peptides. ODC concentrations were fixed at 20 µg/mL (0.19 µM). The IC50 values of AZ peptides shown in Table 1 were derived from fitting these inhibition curves. The molar ratio refers to AZ peptide versus ODC monomer.
(§1) The ODC enzyme activity was determined using a CO2-L3K assay kit (DCL, Charlottetown, Canada) at 37°C. The continuous measurement of ODC enzyme activity was coupled to the carboxylation of PEP to oxaloacetate and the oxidation of oxaloacetate to malate, as previously reported. The reaction mixture contains 30 mM Tris-HCl at pH 7.8, 10 mM ornithine, 0.2 mM […] and 0.4 ml of the CO2-L3K assay kit solution, which contains 12.5 mM PEP, >0.4 U/ml phosphoenolpyruvate carboxylase (microbial), >4.1 U/ml malate dehydrogenase (mammalian) and 0.6 mM NADH analog in a final volume of 0.5 ml.
For the AZ inhibition experiment, the ODC enzyme (0.19 µM) and various amounts of AZ were added to the reaction mixture. The reaction was started after the ODC was added, and the absorbance decrease at 405 nm was continuously traced using a Perkin-Elmer Lamba-25 spectrophotometer. In this coupled reaction, the production of 1 mol of CO2 was concomitant with the oxidation of 1 mol of NADH analog. An extinction coefficient of 2410 M ^−1 was used for the NADH analog in the calculations.
(§2) To evaluate the inhibitory effect of AZ, the inhibited ODC enzyme activity versus [AZ] was fitted with the following equation to estimate the IC50 value: [drawing 1] where A and B are the minimum and maximum ODC enzyme activity, respectively, and the Hill slope gives the largest slope of the curve. The IC50 value represents the concentration of AZ required for 50% inhibition of ODC enzyme activity. All of the calculations were done using the SigmaPlot 10.0 software program (Jandel, San Rafael, CA).

[2] = biological target: human ODC (equilibrated with equimolar AZI); test: ODC enzyme activity inhibition by AZ peptides in the presence of AZI; format: biochemical; details: for IC50 (with AZI)/IC50 (without AZI): ratio with/without equimolar AZI
Method: AZ has a greater affinity for AZI than ODC, such that the formation of an AZ-AZI heterodimer will release the ODC monomer from an AZ-ODC complex and rapidly restore ODC enzyme activity. Here, we examined the inhibition of ODC enzyme activity by AZ peptides in the presence of AZI. The ODC enzyme was first pre-incubated with AZI, keeping the molar ratio of AZI monomer/ODC monomer at unity. […] Table 1 illustrates the IC50 values of the AZ peptides in the presence of AZI, showing that all of the IC50 values for the AZ peptides with AZI were larger than the values without AZI.
Figure 4 Relative ODC enzyme activities in the presence of AZ and AZI. ODC enzymes equilibrated with equimolar AZI were inhibited by various concentrations of AZ peptides. The concentrations of AZI and ODC were fixed at 18.9 µg/mL and 20 µg/mL, respectively (the ratio of AZI monomer versus ODC monomer was fixed at 1). Panels A–H show the inhibition curves of ODC for each AZ peptide in the absence (closed circles) and in the presence (open circles) of AZI.
as §1, §2

human ODC [3] = test: AZ peptide-ODC complex size distribution by analytical ultracentrifugation; format: binding; details: for K d,AZ-ODC fold higher than that of AZ_WT: ratio to AZ_WT
Method: AZ binds ODC, dissociates the ODC dimer and then inactivates the enzyme, [20]. […] In order to determine the differential binding affinity of these AZ peptides toward ODC, the size distributions of ODC with different concentrations of AZ peptides were analyzed. All sedimentation data were globally fitted with the AB hetero-association model in the SEDPHAT program to obtain the dissociation constant (K d) between ODC and AZ (Figure 3 and Table 2).
Figure 3 Continuous sedimentation coefficient distribution of human ODC in the presence of AZ peptide. The concentration of ODC was fixed at 0.3 mg/mL with concentrations of AZ ranging from 0.015 to 0.2 mg/mL (the molar ratio of AZ/ODC ranged from 0.12 to 2) in a buffer of 30 mM Tris-HCl (pH 7.4) and 25 mM NaCl at 20°C. The sedimentation velocity data were globally fitted with the SEDTHAT program to obtain K d values for the AZ peptide-ODC complex (Table 2).
A Beckman Optima XL-A analytical ultracentrifuge was used for sedimentation velocity experiments. Reference and sample sectors in the centerpiece were filled with buffer (400 µl) and sample protein (0.3 mg/mL, 380 µl), respectively, and then the cell was built up in an An-50 Ti rotor. Sedimentation velocity experiments were performed at 20°C with a rotor speed of 42,000 rpm. The data were traced by absorbance at 280 nm in continuous mode, with a time interval of 420 s and a step size of 0.002 cm. A total of 20–30 scans at different time points were collected and fitted to a continuous size distribution model using the program SEDFIT [54]–[55]. All size distributions were calculated at 0.1 to 20 S with a confidence level of p = 0.95 and a resolution N of 200.
In order to determine the dissociation constants (K d) of the AZ peptide-ODC and AZ peptide-AZI complexes, sedimentation velocity experiments were performed at different concentrations of AZ or AZ peptide with a constant concentration of human ODC or AZI. The K d values of the AZ peptide-ODC and AZ peptide-AZI complexes were calculated by a global fitting of all sedimentation data in the AB hetero-association model in the SEDPHAT program [56]–[57]. The partial specific volumes of the proteins, the solvent densities, and the viscosity were calculated by the SEDNTERP program.

IC50 (human ODC [1]) [µM] | IC50 (AZ peptide)/IC50 (AZ_WT) (human ODC [1]) | IC50 (with AZI)/IC50 (without AZI) [2] | Inhibition of ODC with AZI relative to AZ_WT or to without AZI (in words) ([2]; equimolar AZI, Figure 4) | Substance | ODC inhibition ability (in words) (human ODC [1]) | K d,AZ-ODC fold higher than that of AZ_WT (human ODC [3]) [fold] | Size distribution of ODC in the presence of AZ (in words) (human ODC [3]; sedimentation velocity, 20°C, Figure 3)
0.37 | 2.3 |  |  | AZ_106-228: truncated human AZ protein, residues 106-228 | weaker inhibition ability than AZ_100-228 |  | 
 | 4.0 | 3.0 |  | AZ_95-124: truncated human AZ protein, residues 95-124 |  |  | 
 | 1.0 | 3.5 |  | AZ_95-228: truncated human AZ protein, residues 95-228 | also similar to that of AZ_WT | 2.1 | 
0.97 | 6.0 |  |  | AZ_114-228: truncated human AZ protein, residues 114-228 |  |  | 
 |  |  |  | AZ_177-228: truncated human AZ protein, residues 177-228 (HKNREDRAALLRTFSFLGFEIVRPGHPLVPKRPDACFMAYTFERESSGEEEE; UniProt P54368 177-228, looked up, fragment) | almost no ODC inhibition, even at high concentrations of AZ; also recorded: displays no inhibition of ODC activity |  | 
 |  |  |  | AZ_152-228: truncated human AZ protein, residues 152-228 | almost no ODC inhibition, even at high concentrations of AZ |  | 
 | 1.2 | 3.4 |  | AZ_95-176: minimal AZ peptide fully functioning in the binding of ODC and AZI, residues 95-176 | retained most of the inhibition ability | 7.8 | 
 | 1.0 | 3.1 | lower than in the absence of AZI | Antizyme [AZ_WT] |  |  | disrupted dimeric ODC to form AZ-ODC complexes
1.19 | 7.3 |  |  | AZ_126-228: truncated human AZ protein, residues 126-228 |  |  | 
0.37 | 2.3 |  |  | AZ_95-169: truncated human AZ protein, lacking β-strand 6, residues 95-169 | displayed a noteworthy decrease in ODC inhibition ability |  | 
0.86 | 5.3 |  |  | AZ_100-135: truncated human AZ protein, residues 100-135 | notably weaker inhibition ability than AZ_100-228 |  | 
 | 3.2 | 3.1 |  | AZ_95-135: truncated human AZ protein, residues 95-135 |  |  | 
 | 1.3 | 3.0 |  | AZ_100-228: truncated human AZ protein, residues 100-228 |  | 7.5 | 
 | 3.2 | 3.0 |  | AZ_87-124: truncated human AZ protein, residues 87-124 |  |  | 
0.17 | 1.1 |  |  | AZ_87-228: truncated human AZ protein, residues 87-228 |  |  | 
0.82 | 5.0 |  |  | AZ_100-124: truncated human AZ protein, residues 100-124 | notably weaker inhibition ability than AZ_100-228 |  | 
 | 2.6 | 3.3 |  | AZ_100-176: truncated human AZ protein, residues 100-176 | had a lower inhibition ability than that of AZ_100-228; also recorded: not as good as that of AZ_95-176 or AZ_100-228 |  | 
